Legend:
Nucleic Acid [1] = assay: Melting temperature (Tm) of DNA in the presence of compound (5 uM); format: functional; conditions: Bos taurus
Nucleic Acid [2] = assay: Apparent association constant for DNA; format: nucleic-acid assay, Bos taurus
Nucleic Acid [3] = assay: Intrinsic association constant for DNA; format: nucleic-acid assay, Bos taurus
Nucleic Acid [4] = assay: Melting temperature (Tm) of DNA in the absence of the compound; format: functional; conditions: Bos taurus
[5] = Concentration of compound required for reduction of the fluorescence of ethidium bromide; format: functional

Row | Ki (Nucleic Acid [2]) | Ki (Nucleic Acid [3]) | SMILES | Tm (Nucleic Acid [1]) | Tm (Nucleic Acid [4]) | C50 [5]
1 | 100000 M⁻¹ | 800000 M⁻¹ | CN(C)Cc1cccc2ccc(-c3ccc4cccc(CN(C)C)c4c3)cc12 | 81.2 °C | 75 °C | 7.2 µM
2 | – | 2200 M⁻¹ | CNc1ccc2ccccc2c1 | – | – | –

Row | SMILES | Ki (Nucleic Acid [2]) | Ki (Nucleic Acid [3]) | Tm (Nucleic Acid [1]) | Tm (Nucleic Acid [4]) | C50 [5]
3 | CC[n+]1c(-c2ccccc2)c2cc(N)ccc2c2ccc(N)cc21.[Br-] [HOMIDIUM BROMIDE] | – | 360000 M⁻¹ | – | – | –

Reference: ChEMBL document CHEMBL1148229, “Synthesis of a novel intercalator based on 2,2'-binaphthalene bearing dimethylammonium groups” (Bioorg Med Chem Lett, 2004)
